One data set concerns human BBB organoids. Nature of the data set: BBB organoid peptide permeability assay. Format: in vitro ADME. The settings on record: Cy5.5-labeled peptide, 10 μM, 3 hrs. The protocol: Immortalized hCMEC/D3, primary HBVP and primary human astrocytes were used for generation of BBB organoids as previously described (Cho et al., Nat Commun 8, 15623 (2017); Fadzen et al., J. Am. Chem. Soc. 139, 15628-15631 (2017)). Briefly, agarose (0.5 g) was dissolved in 50 mL of MilliQ water or PBS in a conical flask and the solution was heated in a microwave for 1-2 minutes until completely dissolved. Melted agarose was transferred into a sterile tissue culture hood and immediately poured into a 50-mL sterile basin. 50 μL of melted agarose was dispensed into each well in a 96-well plate using a multichannel pipette. The plate was set aside to allow agarose to solidify completely inside the wells for at least 15 minutes. […] Each cell type was counted using a hemocytometer, and 1,500 of each cell type were seeded into each well containing solidified agarose. […]
For peptide permeability analyses, after 48 hrs, organoids that formed successfully were pooled together into a 0.5-mL microcentrifuge tube in BBB working medium. […] The organoids were then transferred onto a thin-well chambered coverglass and imaged by confocal fluorescence microscopy. Quantification of peptide permeability was performed using the ImageJ software, where the mean fluorescence intensity of the core of each spheroid (at a depth between 50-90 μm) was measured, and then plotted on GraphPad Prism.

The target of data set [1] is T1, recombinant BΔg protein (deglycosylated brevican) (Homo sapiens, UniProt Q96GW7).
T1 construct: purchased R&D Systems 4009-BC-050
T1 sequence (Q96GW7 23-911): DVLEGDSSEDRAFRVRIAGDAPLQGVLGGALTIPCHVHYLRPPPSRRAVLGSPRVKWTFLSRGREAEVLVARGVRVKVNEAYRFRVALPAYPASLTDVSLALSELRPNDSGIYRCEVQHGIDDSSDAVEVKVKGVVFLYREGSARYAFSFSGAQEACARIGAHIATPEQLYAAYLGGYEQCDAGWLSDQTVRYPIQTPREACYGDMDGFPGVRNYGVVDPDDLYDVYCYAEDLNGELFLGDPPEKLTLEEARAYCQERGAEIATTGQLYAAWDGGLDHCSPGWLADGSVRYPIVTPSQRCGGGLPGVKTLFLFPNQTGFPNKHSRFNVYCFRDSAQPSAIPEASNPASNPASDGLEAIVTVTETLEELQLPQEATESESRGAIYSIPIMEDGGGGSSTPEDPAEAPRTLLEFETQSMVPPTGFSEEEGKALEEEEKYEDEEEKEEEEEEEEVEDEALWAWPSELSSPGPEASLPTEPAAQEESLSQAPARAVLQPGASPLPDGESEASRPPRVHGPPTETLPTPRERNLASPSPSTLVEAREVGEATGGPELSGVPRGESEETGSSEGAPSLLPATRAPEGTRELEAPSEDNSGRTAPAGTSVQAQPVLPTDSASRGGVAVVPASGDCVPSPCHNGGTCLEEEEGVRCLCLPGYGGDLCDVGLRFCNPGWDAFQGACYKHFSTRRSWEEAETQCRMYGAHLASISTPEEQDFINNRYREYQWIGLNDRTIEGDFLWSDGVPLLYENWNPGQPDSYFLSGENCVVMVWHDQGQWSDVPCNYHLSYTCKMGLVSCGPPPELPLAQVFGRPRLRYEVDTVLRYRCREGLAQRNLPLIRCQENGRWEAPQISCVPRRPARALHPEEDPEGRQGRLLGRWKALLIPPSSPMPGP
As to the kind of experiment: Octet steady state binding affinity to recombinant BΔg. Conditions: KD of labeled versus unlabeled peptide. The protocol: A ForteBio OctetRed384 instrument was used to study the binding kinetics of each peptide to recombinant human brevican (re-suspended in PBS and 0.1 mM EDTA, pH 6.8). The brevican protein was deglycosylated prior to experimental use in water+0.05% tween, PI, sialidase, 0-glycosidase, N-glycosidase in sodium acetate [200 mM], NaCl [250 mM], Tris-HCl [200 mM], pH 7.5.) in the presence of protease inhibitor overnight at 4° C. (this entire composition will be referred to as ‘de-glycosylation buffer’). […] The final volume for all the solutions was 80 μl/well. Assays were performed at 30° C. in solid black 384-well plates (Geiger Bio-One). Prior to beginning, Ni-NTA biosensors were soaked for 10 min in working buffer. Before loading the protein onto each biosensor, a baseline was established in working buffer for 60 s. Deglycosylated brevican (50 μg/ml BΔg; His-tagged) was loaded on the surface of each biosensors for 180 s. […] Reference biosensors were also included in the plate as internal controls, where biosensors were exposed to the ‘de-glycosylation buffer’ lacking brevican protein during the loading step. A 60 s biosensor washing step was applied. Then, biosensors were exposed to the analyte (peptide) in working buffer (ranging between 0-10 μM BTP) for 300 s during the ‘association’ step. Finally, the biosensors were exposed to working buffer (without peptide) during the ‘dissociation’ step for 600 s. Binding affinity of each peptide was assessed through steady state analysis, where the response unit was plotted over peptide concentration. All data was plotted and curves were fitted using the non-linear ‘one-site specific binding’ fit, and the dissociation constant (KD) value was calculated using the GraphPad Prism software.
Binding kinetics analyses were performed using the Octet RED platform (Forte Bio) to measure the binding affinity of BTP-7, 8 and 9 to purified recombinant BΔg protein.
A general note: BLI is a label-free optical method that tracks binding on a fibre tip over time.

In data set [2] the target is T2, glycosylated isoform of normal brevican (Bcan) (Homo sapiens, UniProt Q96GW7).
T2 construct: purchased R&D Systems 4009-BC-050
T2 sequence (Q96GW7 23-911): T1 sequence (Q96GW7 23-911)
As to the kind of experiment: Octet steady state binding to fully glycosylated brevican (control). Conditions: Octet steady state analysis.

For data set [3] the following is noted: cited from earlier work.

Structures are written as SMILES. Where a SMILES comes first, the peptide text is derived from it. [ ]: non-standard residue; d: D form. The star is where a group is joined. X1 = O=C(O)c1cc(NC(=S)*)ccc1-c1c2ccc(=O)cc-2oc2cc(O)ccc12; Ahx = NCCCCCC(=O)O

As to `CC(C)[C@@H](NC(=O)[C@@H](Cc1c[nH]cn1)NC(=O)CNC(=O)[C@@H](Cc1c[nH]c2ccccc12)NC(=O)[C@@H](CCCCN)NC(=O)[C@H](N)[C@H](C)O)C(=O)N[C@H](CC(N)=O)C(=O)N[C@H](CCCCN)C(N)=O` [BTP-7, TKWGHVNK], the “influx into the core of the BBB organoids” value in the data set with human BBB organoids is reported as “dramatic influx”. Turning to `CC(C)[C@@H](NC(=O)[C@@H](Cc1c[nH]cn1)NC(=O)CNC(=O)[C@@H](Cc1c[nH]c2ccccc12)NC(=O)[C@@H](CCCCN)NC(=O)[C@H](N)[C@H](C)O)C(=O)N[C@H](CC(N)=O)C(=O)N[C@H](CCCCN)C(=O)NCCCCCC(=O)N[C@@H](CCCCNC(=S)Nc1ccc(-c2c3ccc(=O)cc-3oc3cc(O)ccc23)c(C(=O)O)c1)C(N)=O` [BTP-7 conjugated to a fluorescein dye] (H-[dT][dK][dW]G[dH][dV][dN][dK][Ahx]K(X1)-NH2), in data set [1], the “binding affinity relative to the unlabeled BTP-7 (times less)” value was “more than 10 times”. For the same compound, the “binding to the glycosylated isoform of normal brevican” value in data set [2] is listed as “does not bind”. Regarding `CC[C@@]1(O)C(=O)OCc2c1cc1n(c2=O)Cc2cc3ccccc3nc2-1` [CPT, camptothecin], in data set [3], the “solubility of CPT itself” value is “insoluble”.

Source of the values: patent US12527835B2, “Brevican-binding peptides for brain tumor imaging” (The Brigham and Women's Hospital, Inc., priority 2018, dated 2026).
